Counter-ions that a name gives are not always drawn.
Columns and labels:
[1] = target: T1, human XIAP_BIR3 domain purified protein (Homo sapiens, UniProt P98170); assay: XIAP binding inhibitory activity, HTRF method with b-Smac ligand; settings: for IC50: second symbol of the cell, read-out: XIAP binding 50% inhibitory concentration (IC50 value); for inhibition at 3 µM: test compound 3 μM, first symbol of the cell, read-out: XIAP binding inhibition rate when the concentration of the test compound is 3 μM
T1 construct: purchased R & D
T1 sequence (P98170 252-356 limits assumed): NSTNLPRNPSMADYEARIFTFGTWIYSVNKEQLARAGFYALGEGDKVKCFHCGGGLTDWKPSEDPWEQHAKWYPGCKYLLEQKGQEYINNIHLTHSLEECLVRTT
Procedure, shortened: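 HTRF competition: human XIAP BIR3 and C-terminally biotinylated Smac peptide AVPIAQK, each diluted to 90 nM before addition, in HEPES pH 7.5 buffer with NaCl, BSA, Triton X-100. Eu-cryptate anti-His/streptavidin-XL665 detection after ≥4 h at room temperature; inhibition % from 665/615 ratio versus no-compound control.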

BCR-ABL = target: T2, BCR-ABL (Homo sapiens, UniProt P00519); assay: In vitro degradation activity of BCR-ABL in K562 cells, western blotting; format: cell-based; settings: test compound 30 μM, 24 hours, relative to DMSO control set at 100
T2 construct: BCR N-terminal part (natural fusion partner, P11274); endogenous in cells; host or cells: K562 (ECACC); the other entry of the earlier key: BCR (P11274, Breakpoint cluster region protein)
T2 sequence (P00519 with tags, fused parts or gaps): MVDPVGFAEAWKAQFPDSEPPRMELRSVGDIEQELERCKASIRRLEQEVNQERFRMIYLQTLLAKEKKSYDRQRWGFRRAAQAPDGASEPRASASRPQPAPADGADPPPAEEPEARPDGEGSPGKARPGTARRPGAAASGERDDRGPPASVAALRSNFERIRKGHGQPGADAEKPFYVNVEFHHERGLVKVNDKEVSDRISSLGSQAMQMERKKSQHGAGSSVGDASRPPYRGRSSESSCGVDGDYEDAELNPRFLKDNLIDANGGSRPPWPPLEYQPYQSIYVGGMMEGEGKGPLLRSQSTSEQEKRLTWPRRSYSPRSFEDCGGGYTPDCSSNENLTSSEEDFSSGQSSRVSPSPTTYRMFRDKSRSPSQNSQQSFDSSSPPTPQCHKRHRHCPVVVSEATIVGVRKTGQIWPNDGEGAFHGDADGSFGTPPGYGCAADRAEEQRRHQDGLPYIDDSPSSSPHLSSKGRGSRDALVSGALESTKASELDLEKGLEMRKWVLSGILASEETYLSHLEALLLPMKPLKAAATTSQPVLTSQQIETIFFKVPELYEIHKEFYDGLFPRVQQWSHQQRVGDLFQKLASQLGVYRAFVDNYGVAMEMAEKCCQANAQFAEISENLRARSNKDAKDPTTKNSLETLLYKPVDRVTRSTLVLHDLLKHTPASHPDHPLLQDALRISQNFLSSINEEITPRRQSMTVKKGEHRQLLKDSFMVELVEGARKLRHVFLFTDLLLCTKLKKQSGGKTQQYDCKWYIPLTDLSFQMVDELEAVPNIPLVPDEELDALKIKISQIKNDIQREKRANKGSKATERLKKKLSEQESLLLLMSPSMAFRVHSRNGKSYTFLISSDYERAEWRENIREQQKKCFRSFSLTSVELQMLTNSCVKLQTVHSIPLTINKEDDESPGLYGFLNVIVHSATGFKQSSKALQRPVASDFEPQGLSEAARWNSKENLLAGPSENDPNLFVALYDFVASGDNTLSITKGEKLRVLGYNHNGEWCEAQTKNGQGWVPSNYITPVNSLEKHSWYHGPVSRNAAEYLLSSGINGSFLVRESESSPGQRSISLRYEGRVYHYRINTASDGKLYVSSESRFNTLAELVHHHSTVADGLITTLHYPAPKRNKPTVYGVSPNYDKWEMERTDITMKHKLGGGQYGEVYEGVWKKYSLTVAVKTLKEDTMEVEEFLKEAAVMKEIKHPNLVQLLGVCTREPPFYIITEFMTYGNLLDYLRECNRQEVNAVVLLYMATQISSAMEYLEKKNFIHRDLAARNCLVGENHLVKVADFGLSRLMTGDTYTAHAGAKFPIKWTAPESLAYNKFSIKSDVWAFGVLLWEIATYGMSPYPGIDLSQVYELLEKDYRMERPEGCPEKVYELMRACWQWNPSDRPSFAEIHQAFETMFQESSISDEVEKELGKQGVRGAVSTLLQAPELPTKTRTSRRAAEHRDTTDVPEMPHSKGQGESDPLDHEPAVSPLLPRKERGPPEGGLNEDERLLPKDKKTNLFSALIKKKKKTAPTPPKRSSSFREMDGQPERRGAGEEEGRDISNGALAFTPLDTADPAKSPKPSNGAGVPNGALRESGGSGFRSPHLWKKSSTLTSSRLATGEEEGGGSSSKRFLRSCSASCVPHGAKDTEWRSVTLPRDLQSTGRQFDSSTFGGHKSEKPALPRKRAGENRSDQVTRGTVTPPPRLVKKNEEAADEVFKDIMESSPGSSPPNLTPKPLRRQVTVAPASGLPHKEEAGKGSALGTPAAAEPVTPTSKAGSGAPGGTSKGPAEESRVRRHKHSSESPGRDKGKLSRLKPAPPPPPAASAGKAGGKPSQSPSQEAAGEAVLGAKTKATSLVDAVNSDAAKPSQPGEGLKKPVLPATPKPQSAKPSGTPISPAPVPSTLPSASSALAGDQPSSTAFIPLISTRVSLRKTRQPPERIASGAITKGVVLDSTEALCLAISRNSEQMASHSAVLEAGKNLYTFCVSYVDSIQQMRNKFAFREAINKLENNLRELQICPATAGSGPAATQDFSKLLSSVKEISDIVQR
Experimental: In vitro degradation activities of BCR-ABL of the example compounds were evaluated by the following method. K562 cells were purchased from ECACC and cultured in RPMI-1640 supplemented with 10% FBS and 1% penicillin/streptomycin. K562 cells were seeded at a density of 1×10^6 cells/well in 24-well plate and treated with DMSO control or Example 80 and 81 (1, 3, 10, 30 μM), and then incubated for 24 hours. The cells were collected and lysed on ice for 30 minutes in lysis buffer (0.5% Triton X-100, 0.01 M Tris-HCl (pH 8.0), 0.15 M NaCl) containing a protease inhibitor cocktail (Sigma-Aldrich). The lysates were vortexed for 2 minutes and centrifuged for 15 minutes at 15 krpm at 4° C. Protein concentrations were determined by the BCA assay (Thermo Fisher). Proteins were separated with Nu-PAGE (Thermo Fisher) and analyzed by western blotting (standard protocol) using antibodies of anti-BCR (Cell Signaling #3902), and R-actin (Sigma #A2066). Bands (luminescent intensities) were quantified using LAS-4000 luminescent image analyzer (Fuji). The values of BCR-ABL were corrected by the internal control value of R-actin and analyzed relative to DMSO control set at 100. The remaining protein rate (%) are described as A≤25%, 25%<B≤50%, 50%<C≤75%, D>75% when the concentration of the test compound is 30 μM.

XIAP = target: T3, XIAP (Homo sapiens, UniProt P98170); assay: In vitro degradation activity of XIAP in THP1 cells, western blotting; format: cell-based; settings: test compound 10 μM, 24 hours, relative to DMSO control set at 100
T3 construct: endogenous in cells; host or cells: THP1 (ATCC)
T3 sequence (P98170 whole entry): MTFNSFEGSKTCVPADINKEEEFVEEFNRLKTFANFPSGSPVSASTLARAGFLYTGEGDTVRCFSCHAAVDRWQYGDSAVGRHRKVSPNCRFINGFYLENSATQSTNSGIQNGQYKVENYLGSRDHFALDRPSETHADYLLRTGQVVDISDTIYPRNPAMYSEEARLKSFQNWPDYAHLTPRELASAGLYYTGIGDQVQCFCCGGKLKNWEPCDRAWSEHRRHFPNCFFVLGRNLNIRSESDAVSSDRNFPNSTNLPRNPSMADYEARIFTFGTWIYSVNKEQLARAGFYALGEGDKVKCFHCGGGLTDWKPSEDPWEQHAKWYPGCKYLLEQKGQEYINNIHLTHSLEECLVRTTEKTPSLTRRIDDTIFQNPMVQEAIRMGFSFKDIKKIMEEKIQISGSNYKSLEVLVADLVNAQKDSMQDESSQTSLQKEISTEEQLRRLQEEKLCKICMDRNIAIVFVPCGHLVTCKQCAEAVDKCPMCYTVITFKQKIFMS
Experimental: In vitro degradation activities of XIAP of the example compounds were evaluated by the following method. THP1 cells were purchased from ATCC and cultured in RPMI-1640 supplemented with 10% FBS and 1% penicillin/streptomycin. THP1 cells were seeded at a density of 1×10^6 cells/well in 24-well plate and treated with DMSO control or Example 86 and 87 (0.001, 0.01, 0.1, 1, 10 μM), and then incubated for 24 hours. The cells were collected and lysed on ice for 30 minutes in lysis buffer (0.5% Triton X-100, 0.01 M Tris-HCl (pH 8.0), 0.15 M NaCl) containing a protease inhibitor cocktail (Sigma-Aldrich). The lysates were sonicated for 30 sec ON/30 sec OFF for ten cycles and centrifuged for 15 minutes at 15 krpm at 4° C. Protein concentrations were determined by the BCA assay (Thermo Fisher). Proteins were separated with Nu-PAGE (Thermo Fisher) and analyzed by western blotting (standard protocol) using antibodies of anti-XIAP (Cell Signaling #14334), and β-actin (Sigma #A2066). Bands (luminescent intensities) were quantified using LAS-4000 luminescent image analyzer (Fuji). The values of XIAP were corrected by the internal control value of β-actin and analyzed relative to DMSO control set at 100. The remaining protein rate (%) are described as A≤25%, 25%<B≤50%, 50%<C≤75%, D>75% when the concentration of the test compound is 10 μM.

Row | IC50 [1] | remaining protein rate (%) BCR-ABL (BCR-ABL) | inhibition at 3 µM [1] | SMILES | remaining protein rate (%) XIAP (XIAP)
1 |  |  | 50 to 75% | CN[C@@H](C)C(=O)N[C@H](C(=O)N1CCN(C(=O)c2c(C(=O)NCCOCCOCCOCC(=O)N3CCN(c4cc(Nc5ncc(C(=O)Nc6c(C)cccc6Cl)s5)nc(C)n4)CC3)c3cc(F)ccc3n2C)CC1)C1CCCCC1 [Example 84, N-(2-chloro-6-methylphenyl)-2-((6-(4-(1-(2-(4-((S)-2-cyclohexyl-2-((S)-2-(methylamino)propanamido)acetyl)piperazine-1-carbonyl)-5-fluoro-1-methyl-1H-indol-3-yl)-1-oxo-5,8,11-trioxa-2-azatridecan-13-oyl)piperazin-1-yl)-2-methylpyrimidin-4-yl)amino)thiazole-5-carboxamide] | 
2 |  |  | 50 to 75% | CN[C@@H](C)C(=O)N[C@H](C(=O)N1CCN(C(=O)c2c(C(=O)NCCOCCOCC(=O)N3CCN(c4cc(Nc5ncc(C(=O)Nc6c(C)cccc6Cl)s5)nc(C)n4)CC3)c3cc(F)ccc3n2C)CC1)C1CCCCC1 [Example 85, N-(2-chloro-6-methylphenyl)-2-((6-(4-(2-(2-(2-(2-(4-((S)-2-cyclohexyl-2-((S)-2-(methylamino)propanamido)acetyl)piperazine-1-carbonyl)-5-fluoro-1-methyl-1H-indole-3-carboxamido)ethoxy)ethoxy)acetyl)piperazin-1-yl)-2-methylpyrimidin-4-yl)amino)thiazole-5-carboxamide] | 
3 |  |  | > 75% | CN[C@@H](C)C(=O)N[C@H](C(=O)N1CCN(C(=O)c2cc3cc(F)ccc3n2CC(=O)NCCOCCNC(=O)Cn2c(C(=O)N3CCN(C(=O)[C@@H](NC(=O)[C@H](C)NC)C4CCCCC4)CC3)cc3cc(F)ccc32)CC1)C1CCCCC1 [Example 87, (S)—N—((S)-1-Cyclohexyl-2-(4-(1-(2-((2-(2-(2-(2-(4-((R)-2-cyclohexyl-2-((R)-2-(methylamino)propanamide)acetyl)piperazine-1-carbonyl)-5-fluoro-1H-indol-1-yl)acetamide)ethoxy)ethyl)amino)-2-oxoethyl)-5-fluoro-1H-indole-2-carbonyl)piperazin-1-yl)-2-oxoethyl)-2-(methylamino)propanamide bistrifluoroacetate] | C (50%<C≤75%)

More lines, now with the values behind:

Row | SMILES | IC50 [1] | remaining protein rate (%) BCR-ABL (BCR-ABL) | inhibition at 3 µM [1] | remaining protein rate (%) XIAP (XIAP)
4 | CN[C@@H](C)C(=O)N[C@H](C(=O)N1CCN(C(=O)c2c(C(=O)NCCOCCN3CCN(c4cc(Nc5ncc(C(=O)Nc6c(C)cccc6Cl)s5)nc(C)n4)CC3)c3cc(F)c(F)cc3n2C)CC1)C1CCCCC1 [Example 80, N-(2-Chloro-6-methylphenyl)-2-((6-(4-(2-(2-(2-(4-((S)-2-cyclohexyl-2-((S)-2-(methylamino)propanamide)acetyl)piperazine-1-carbonyl)-5,6-difluoro-1-methyl-1H-indole-3-carboxamido)ethoxy)ethyl)piperazin-1-yl)-2-methylpyrimidin-4-yl)amino)thiazole-5-carboxamide] | 0.3 to 3 µM | C (50%<C≤75%) |  | 
5 | CN[C@@H](C)C(=O)N[C@H](C(=O)N1CCN(C(=O)c2c(C(=O)NCCOCCOCCN3CCN(c4cc(Nc5ncc(C(=O)Nc6c(C)cccc6Cl)s5)nc(C)n4)CC3)c3cc(F)c(F)cc3n2C)CC1)C1CCCCC1 [Example 81, N-(2-Chloro-6-methylphenyl)-2-((6-(4-(2-(2-(2-(2-(4-((S)-2-cyclohexyl-2-((S)-2-(methylamino)propanamido)acetyl)piperazine-1-carbonyl)-5,6-difluoro-1-methyl-1H-indole-3-carboxamido)ethoxy)ethoxy)ethyl)piperazin-1-yl)-2-methylpyrimidin-4-yl)amino)thiazole-5-carboxamide trifluoroacetate] | 0.3 to 3 µM | D (D>75%) |  | 
6 | Cc1nc(Nc2ncc(C(=O)Nc3c(C)cccc3Cl)s2)cc(N2CCN(CCOCCOCCOC[C@H]3CN[C@H](C)CN3CC(=O)N3CCN(C(=O)c4cc5cc(F)c(F)cc5n4C)C[C@H]3C)CC2)n1 [Example 83, N-(2-chloro-6-methylphenyl)-2-((6-(4-(2-(2-(2-(((2R,5R)-1-(2-((R)-4-(5,6-difluoro-1-methyl-1H-indole-2-carbonyl)-2-methylpiperazin-1-yl)-2-oxoethyl)-5-methylpiperazin-2-yl)methoxy)ethoxy)ethoxy)ethyl)piperazin-1-yl)-2-methylpyrimidin-4-yl)amino)thiazole-5-carboxamide] | 3 to 30 µM |  |  | 
7 | CN[C@@H](C)C(=O)N[C@H](C(=O)N1CCN(C(=O)c2c(C(=O)NCCOCCOCCNC(=O)c3c(C(=O)N4CCN(C(=O)[C@@H](NC(=O)[C@H](C)NC)C5CCCCC5)CC4)n(C)c4ccc(F)cc34)c3cc(F)ccc3n2C)CC1)C1CCCCC1 [Example 86, N,N′-((Ethan-1,2-diylbis(oxy))bis(ethan-2,1-diyl))bis(2-(4-((S)-2-cyclohexyl-2-((S)-2-(methylamino)propanamido)acetyl)piperazine-1-carbonyl)-5-fluoro-1-methyl-1H-indole-3-carboxamide) bistrifluoroacetate] | < 0.3 µM |  | > 75% | C (50%<C≤75%)
